Assay results published in PubChem BioAssay AID1259407 (Chemical Carcinogenesis Research Information System (CCRIS), 2018).
Active and inactive are the calls of the source. How the calls were made is not given here.

System: CCRIS mutagenicity, Ames/micronucleus/aberration tests
Assay: CCRIS mutagenicity studies
[1] = Test System: AMES SALMONELLA TYPHIMURIUM, Strain/Indicator: TA98, Metabolic Activation: NONE, Method: PREINCUBATION
[2] = Test System: AMES SALMONELLA TYPHIMURIUM, Strain/Indicator: TA100, Metabolic Activation: NONE, Method: PREINCUBATION
[3] = Test System: AMES SALMONELLA TYPHIMURIUM, Strain/Indicator: TA1535, Metabolic Activation: NONE, Method: PREINCUBATION

Nc1ccc(O)c([N+](=O)[O-])c1 was tested, and the mutagenic call (Test System: AMES SALMONELLA TYPHIMURIUM, Strain/Indicator: TA97, Metabolic Activation: HAMSTER, LIVER, S-9, AROCLOR 1254 (10%), Method: PREINCUBATION) was “inactive; negative”, the mutagenic call (Test System: AMES SALMONELLA TYPHIMURIUM, Strain/Indicator: TA97, Metabolic Activation: NONE, Method: PREINCUBATION) was “inactive; negative” and the mutagenic call (Test System: AMES SALMONELLA TYPHIMURIUM, Strain/Indicator: TA97, Metabolic Activation: RAT, LIVER, S-9, AROCLOR 1254 (10%), Method: PREINCUBATION) was “inactive; negative”. The mutagenic call (Test System: AMES SALMONELLA TYPHIMURIUM, Strain/Indicator: TA98, Metabolic Activation: HAMSTER, LIVER, S-9, AROCLOR 1254 (10%), Method: PREINCUBATION) was “inactive; negative”, the mutagenic call [1] was “active; positive” and the mutagenic call (Test System: AMES SALMONELLA TYPHIMURIUM, Strain/Indicator: TA98, Metabolic Activation: NONE, Method: STANDARD PLATE) was “inactive; negative”. The mutagenic call (Test System: AMES SALMONELLA TYPHIMURIUM, Strain/Indicator: TA98, Metabolic Activation: RAT, LIVER, S-9, AROCLOR 1254 (10%), Method: PREINCUBATION) was “inactive; negative”, the mutagenic call (Test System: AMES SALMONELLA TYPHIMURIUM, Strain/Indicator: TA98, Metabolic Activation: RAT, LIVER, S-9, AROCLOR 1254, Method: STANDARD PLATE) was “inactive; negative” and the mutagenic call (Test System: AMES SALMONELLA TYPHIMURIUM, Strain/Indicator: TA100, Metabolic Activation: HAMSTER, LIVER, S-9, AROCLOR 1254 (10%), Method: PREINCUBATION) was “inactive; negative”. For the same compound, the mutagenic call [2] was “inactive; negative”, the mutagenic call (Test System: AMES SALMONELLA TYPHIMURIUM, Strain/Indicator: TA100, Metabolic Activation: NONE, Method: STANDARD PLATE) was “inactive; negative” and the mutagenic call (Test System: AMES SALMONELLA TYPHIMURIUM, Strain/Indicator: TA100, Metabolic Activation: RAT, LIVER, S-9, AROCLOR 1254 (10%), Method: PREINCUBATION) was “inactive; negative”. The mutagenic call (Test System: AMES SALMONELLA TYPHIMURIUM, Strain/Indicator: TA100, Metabolic Activation: RAT, LIVER, S-9, AROCLOR 1254, Method: STANDARD PLATE) was “inactive; negative”, the mutagenic call (Test System: AMES SALMONELLA TYPHIMURIUM, Strain/Indicator: TA1535, Metabolic Activation: HAMSTER, LIVER, S-9, AROCLOR 1254 (10%), Method: PREINCUBATION) was “inactive; negative” and the mutagenic call [3] was “inactive; negative”. The mutagenic call (Test System: AMES SALMONELLA TYPHIMURIUM, Strain/Indicator: TA1535, Metabolic Activation: NONE, Method: STANDARD PLATE) was “inactive; negative”, the mutagenic call (Test System: AMES SALMONELLA TYPHIMURIUM, Strain/Indicator: TA1535, Metabolic Activation: RAT, LIVER, S-9, AROCLOR 1254 (10%), Method: PREINCUBATION) was “inactive; negative” and the mutagenic call (Test System: AMES SALMONELLA TYPHIMURIUM, Strain/Indicator: TA1535, Metabolic Activation: RAT, LIVER, S-9, AROCLOR 1254, Method: STANDARD PLATE) was “inactive; negative”. The mutagenic call (Test System: AMES SALMONELLA TYPHIMURIUM, Strain/Indicator: TA1537, Metabolic Activation: NONE, Method: STANDARD PLATE) was “inactive; negative”, the mutagenic call (Test System: AMES SALMONELLA TYPHIMURIUM, Strain/Indicator: TA1537, Metabolic Activation: RAT, LIVER, S-9, AROCLOR 1254, Method: STANDARD PLATE) was “inactive; negative” and the mutagenic call (Test System: AMES SALMONELLA TYPHIMURIUM, Strain/Indicator: TA1538, Metabolic Activation: NONE, Method: STANDARD PLATE) was “inactive; negative”. The mutagenic call (Test System: AMES SALMONELLA TYPHIMURIUM, Strain/Indicator: TA1538, Metabolic Activation: RAT, LIVER, S-9, AROCLOR 1254, Method: STANDARD PLATE) was “inactive; negative”, the mutagenic call (Test System: E. COLI, Strain/Indicator: WP2 UVRA, Metabolic Activation: HAMSTER, LIVER, S-9, AROCLOR 1254, Method: STANDARD PLATE) was “inactive; negative” and the mutagenic call (Test System: E. COLI, Strain/Indicator: WP2 UVRA, Metabolic Activation: HAMSTER, LIVER, S-9, Method: STANDARD PLATE) was “inactive; negative”. The mutagenic call (Test System: E. COLI, Strain/Indicator: WP2 UVRA, Metabolic Activation: MOUSE, LIVER, S-9, AROCLOR 1254, Method: STANDARD PLATE) was “inactive; negative”, the mutagenic call (Test System: E. COLI, Strain/Indicator: WP2 UVRA, Metabolic Activation: MOUSE, LIVER, S-9, Method: STANDARD PLATE) was “inactive; negative” and the mutagenic call (Test System: E. COLI, Strain/Indicator: WP2 UVRA, Metabolic Activation: NONE, Method: STANDARD PLATE) was “inactive; negative”. For the same compound, the mutagenic call (Test System: E. COLI, Strain/Indicator: WP2 UVRA, Metabolic Activation: RAT, LIVER, S-9, AROCLOR 1254, Method: STANDARD PLATE) was “inactive; negative”, the mutagenic call (Test System: E. COLI, Strain/Indicator: WP2 UVRA, Metabolic Activation: RAT, LIVER, S-9, Method: STANDARD PLATE) was “inactive; negative” and the mutagenic call (Test System: MOUSE LYMPHOMA, Strain/Indicator: L5178Y (TK+/TK-), Metabolic Activation: NONE, Method: SUSPENSION/PLATE) was “active; positive”. For the same compound, the mutagenic call (Test System: MOUSE LYMPHOMA, Strain/Indicator: L5178Y (TK+/TK-), Metabolic Activation: RAT, LIVER, S-9, AROCLOR 1254, Method: SUSPENSION/PLATE) was “active; positive”.
In the case of CCCC(=O)Nc1ncnc2c1ncn2[C@@H]1O[C@@H]2COP(=O)(O)O[C@H]2[C@H]1OC(=O)CCC, the mutagenic call [1] is reported as “inactive; negative”, the mutagenic call (Test System: AMES SALMONELLA TYPHIMURIUM, Strain/Indicator: TA98, Metabolic Activation: RAT, LIVER, S-9, KC-500, Method: PREINCUBATION) is reported as “inactive; negative” and the mutagenic call [2] is reported as “inactive; negative”. The mutagenic call (Test System: AMES SALMONELLA TYPHIMURIUM, Strain/Indicator: TA100, Metabolic Activation: RAT, LIVER, S-9, KC-500, Method: PREINCUBATION) was “inactive; negative”, the mutagenic call [3] was “inactive; negative” and the mutagenic call (Test System: AMES SALMONELLA TYPHIMURIUM, Strain/Indicator: TA1535, Metabolic Activation: RAT, LIVER, S-9, KC-500, Method: PREINCUBATION) was “inactive; negative”. The mutagenic call (Test System: AMES SALMONELLA TYPHIMURIUM, Strain/Indicator: TA1537, Metabolic Activation: NONE, Method: PREINCUBATION) was “inactive; negative”, the mutagenic call (Test System: AMES SALMONELLA TYPHIMURIUM, Strain/Indicator: TA1537, Metabolic Activation: RAT, LIVER, S-9, KC-500, Method: PREINCUBATION) was “inactive; negative” and the mutagenic call (Test System: AMES SALMONELLA TYPHIMURIUM, Strain/Indicator: TA1538, Metabolic Activation: NONE, Method: PREINCUBATION) was “inactive; negative”. The mutagenic call (Test System: AMES SALMONELLA TYPHIMURIUM, Strain/Indicator: TA1538, Metabolic Activation: RAT, LIVER, S-9, KC-500, Method: PREINCUBATION) was “inactive; negative”, the mutagenic call (Test System: E. COLI, Strain/Indicator: WP2 UVRA, Metabolic Activation: NONE, Method: PREINCUBATION) was “inactive; negative” and the mutagenic call (Test System: E. COLI, Strain/Indicator: WP2 UVRA, Metabolic Activation: RAT, LIVER, S-9, KC-500, Method: PREINCUBATION) was “inactive; negative”.
In the case of NC(=O)Nc1nc2ccccc2[nH]1, the mutagenic call (Test System: AMES SALMONELLA TYPHIMURIUM, Strain/Indicator: TA98, Metabolic Activation: HAMSTER, LIVER, S-9, AROCLOR 1254 (30%), Method: PREINCUBATION) is reported as “active; positive”, the mutagenic call [1] is reported as “active; positive” and the mutagenic call (Test System: AMES SALMONELLA TYPHIMURIUM, Strain/Indicator: TA98, Metabolic Activation: RAT, LIVER, S-9, AROCLOR 1254 (30%), Method: PREINCUBATION) is reported as “active; positive”. The mutagenic call (Test System: AMES SALMONELLA TYPHIMURIUM, Strain/Indicator: TA100, Metabolic Activation: HAMSTER, LIVER, S-9, AROCLOR 1254 (30%), Method: PREINCUBATION) was “inactive; negative”, the mutagenic call [2] was “inactive; negative” and the mutagenic call (Test System: AMES SALMONELLA TYPHIMURIUM, Strain/Indicator: TA100, Metabolic Activation: RAT, LIVER, S-9, AROCLOR 1254 (30%), Method: PREINCUBATION) was “inactive; negative”.
Nc1ccc2c3c(cccc13)C(=O)c1ccccc1-2 was tested, and the mutagenic call (End Point: In vivo micronucleus, Test System: lacZ mutant frequency in liver, lung, and bone marrow cells, Species: Mouse, Strain/Sex: Big Blue (BALB/c x DBA2)/Male, Route: Oral) was “active; positive in liver and bone marrow”.
O=C(O)Cc1ccc(Cl)cc1 was tested, and the mutagenic call [1] was “inactive; negative”, the mutagenic call (Test System: AMES SALMONELLA TYPHIMURIUM, Strain/Indicator: TA98, Metabolic Activation: RAT LIVER S-9, PCB, Method: PREINCUBATION) was “inactive; negative” and the mutagenic call [2] was “inactive; negative”. The mutagenic call (Test System: AMES SALMONELLA TYPHIMURIUM, Strain/Indicator: TA100, Metabolic Activation: RAT LIVER S-9, PCB, Method: PREINCUBATION) was “inactive; negative”, the mutagenic call (Test System: AMES SALMONELLA TYPHIMURIUM, Strain/Indicator: TA104, Metabolic Activation: NONE, Method: PREINCUBATION) was “inactive; negative” and the mutagenic call (Test System: AMES SALMONELLA TYPHIMURIUM, Strain/Indicator: TA104, Metabolic Activation: RAT LIVER S-9, PCB, Method: PREINCUBATION) was “inactive; negative”. The mutagenic call (Test System: E.COLI, Strain/Indicator: WP2 UVRA, Metabolic Activation: NONE, Method: PREINCUBATION) was “inactive; negative” and the mutagenic call (Test System: E.COLI, Strain/Indicator: WP2 UVRA, Metabolic Activation: RAT LIVER S-9, PCB, Method: PREINCUBATION) was “inactive; negative”.
